This is an account of results in publication PMC6680768, “Synthesis and Preclinical Evaluation of Radio-Iodinated GRPR/PSMA Bispecific Heterodimers for the Theranostics Application in Prostate Cancer” (Pharmaceutics, 2019).

One may read the IC50 as the concentration that gives 50% inhibition. The low end stands for higher potency, the high end for lower potency. As usually defined, the tissue uptake is the share of the injected amount in each gram of the tissue. The low end stands for little accumulation, the high end for strong accumulation. In general, logD refers to lipophilicity at a set pH, counting ionised and neutral species. Lower therefore signals lower lipophilicity.

SMILES strings stand for the structures. A value given as a limit tells only on which side of the number the result lay.

Series [1] concerns the target T1, PSMA (Homo sapiens, UniProt Q04609).
T1 construct: host or cells: PC-3pip (PC-3 cells transfected with PSMA)
The series is described as follows: Binding inhibition of [^111In]In-PSMA-617 on PC-3pip cells, GRPRs blocked (IC50). The following applies: competitor 1 nM [^111In]In-PSMA-617, GRPRs blocked with 200 nM RM26, 4 °C, 5 h, non-iodinated heterodimers. On the procedure:
Cells were incubated at 4 °C for 5 h. After incubation, the cells were detached with trypsin–EDTA and the activity in cell samples was measured. Data were plotted using nonlinear regression.

Series [2] concerns PC-3pip (GRPR and PSMA positive) xenografts. The arrangement: species or system Balb/c nu/nu mice. The following applies: mouse, in vivo. On the procedure: (§1) The radioactivity uptake in organs was studied 1, 3, 24, and 72 h pi as described above.
On the set-up of series [3]: species or system Balb/c nu/nu mice. The following applies: mouse, in vivo. As to the method:
as §1

Series [4] concerns PC-3pip cells (GRPR and PSMA positive). Nature of the series: Cellular retention of activity after interrupted incubation, PC-3pip cells. It counts as cell-based. The following applies: 24 h. On the procedure: (§2) The cellular retention of activity after interrupted incubation was carried out on PC-3, LNCaP, and PC-3pip cells. A concentration of 20 nM of each radiolabeled heterodimer was added to the cells and the dishes were incubated at 4 °C for 2 h. The media was aspired, and the cells were further incubated with complete media at 37 °C. At predetermined time points, the media was collected, and the cells were detached with trypsin–EDTA and collected. The radioactivity content of each collected fraction was measured.

Series [5] is classed as physicochemical. As to the method: The octanol–water distribution coefficient was determined as described earlier. Briefly, 500 µL of Milli-Q water and 500 µL of n-octanol were added in an Eppendorf tube containing radiolabeled peptide. The tube was vortexed for 2 min and centrifuged for 20 s. Fractions of each phase were collected and their activity was measured.
Series [6] relates to PC-3 cells (GRPR positive). The series is described as follows: Cellular retention of activity after interrupted incubation, PC-3 cells. Format: cell-based. The following applies: 24 h of incubation, normalized to 0 h. On the procedure:
as §2

In series [7] the test system is LNCaP cells (PSMA positive). Nature of the series: Cellular retention of activity after interrupted incubation, LNCaP cells. Format: cell-based. The following applies: 24 h. On the procedure:
as §2

In series [8] the test system is PSMA. The following applies: LNCaP xenografts, 1 h pi, p < 0.05.
Procedure: All in vivo experiments were carried out on BALB/c nu/nu mice provided by Scanbur A/S (Sweden). PC-3, LNCaP, and PC-3pip tumor xenografts were established by implanting 5 × 10^6 cells/mouse for PC-3 and PC-3pip xenografts, and 10 × 10^6 cells for LNCaP xenografts. The in vivo experiments were carried out when palpable tumors were observed. Animal weight at the moment of experiment was 20 ± 2 g, 21 ± 3 g, 14.5 ± 0.8 g, and average tumor size was 0.2 ± 0.1 g, 0.05 ± 0.04 g, 0.4 ± 0.1 g for PC-3, LNCaP, and PC-3pip models, respectively.
In vivo specificity for the radiolabeled heterodimers was tested on mice bearing PC-3 or LNCaP xenografts. The mice were injected with 40 pmol (30 KBq) of the radiolabeled heterodimer in 1% bovine serum albumin (BSA) in PBS. For the mice in the blocked group, 7.5 nmol of either unlabeled NOTA-PEG4-RM26 or PSMA-617 was added to the radiolabeled heterodimer in order to block GRPR in PC-3 xenografted mice or PSMA in LNCaP xenografted mice, respectively. Animals were sacrificed by heart punctures exsanguination after pre-injection of Ketalar–Rompun solution (10 mg/mL Ketalar and 1 mg/mL Rompun; 20 μL solution/gram of body weight). The mice were dissected 1 h post-injection (pi) and the organs of interest were collected. The activity uptake in organs was measured.
In series [9] the target is T1, PSMA. The arrangement: method as in PMID 25883127. The following applies: cited from earlier work.

T1 sequence (Q04609 whole entry): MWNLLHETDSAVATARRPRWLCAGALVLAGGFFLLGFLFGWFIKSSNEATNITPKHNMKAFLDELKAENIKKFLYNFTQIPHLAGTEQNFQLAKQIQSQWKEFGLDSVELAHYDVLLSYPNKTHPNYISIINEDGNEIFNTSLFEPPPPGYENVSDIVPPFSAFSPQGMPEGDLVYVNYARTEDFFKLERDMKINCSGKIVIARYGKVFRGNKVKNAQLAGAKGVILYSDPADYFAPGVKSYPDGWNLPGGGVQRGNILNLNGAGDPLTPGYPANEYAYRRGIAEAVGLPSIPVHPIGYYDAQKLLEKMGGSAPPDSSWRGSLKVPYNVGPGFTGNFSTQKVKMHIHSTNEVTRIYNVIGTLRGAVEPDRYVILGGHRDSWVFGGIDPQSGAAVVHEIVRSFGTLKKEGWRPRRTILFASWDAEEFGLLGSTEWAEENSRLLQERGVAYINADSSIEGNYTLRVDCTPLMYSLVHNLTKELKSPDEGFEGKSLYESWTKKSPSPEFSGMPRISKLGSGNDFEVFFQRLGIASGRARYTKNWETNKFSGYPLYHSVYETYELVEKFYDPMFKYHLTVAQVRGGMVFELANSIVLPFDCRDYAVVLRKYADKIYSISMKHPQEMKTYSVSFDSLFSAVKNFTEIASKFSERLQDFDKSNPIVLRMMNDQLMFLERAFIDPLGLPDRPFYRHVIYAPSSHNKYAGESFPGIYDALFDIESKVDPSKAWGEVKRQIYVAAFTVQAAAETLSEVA

On PSMA [1], `CC(C)C[C@H](NC(=O)C[C@H](O)[C@H](CC(C)C)NC(=O)[C@H](Cc1c[nH]cn1)NC(=O)CNC(=O)[C@@H](NC(=O)[C@H](C)NC(=O)[C@H](Cc1c[nH]c2ccccc12)NC(=O)[C@H](CCC(N)=O)NC(=O)[C@@H](Cc1ccccc1)NC(=O)CCOCCOCCNC(=O)[C@H](Cc1ccc(O)cc1)n1cc(CCCCCCCC(=O)NC[C@H]2CC[C@H](C(=O)N[C@@H](Cc3ccc4ccccc4c3)C(=O)NCCCC[C@H](NC(=O)N[C@@H](CCC(=O)O)C(=O)O)C(=O)O)CC2)nn1)C(C)C)C(N)=O` [BO535] came in with a concentration for half-maximal inhibition (IC50) of 0.1 ± 0.01 µM.
As to `CC(C)C[C@H](NC(=O)C[C@H](O)[C@H](CC(C)C)NC(=O)[C@H](Cc1c[nH]cn1)NC(=O)CNC(=O)[C@@H](NC(=O)[C@H](C)NC(=O)[C@H](Cc1c[nH]c2ccccc12)NC(=O)[C@H](CCC(N)=O)NC(=O)[C@@H](Cc1ccccc1)NC(=O)CCOCCOCCNC(=O)[C@H](Cc1ccc(O)c(I)c1)n1cc(COCCOCCC(=O)NC[C@H]2CC[C@H](C(=O)N[C@@H](Cc3ccc4ccccc4c3)C(=O)NCCCC[C@H](NC(=O)N[C@@H](CCC(=O)O)C(=O)O)C(=O)O)CC2)nn1)C(C)C)C(N)=O` [[^125I]I-BO530], in series [2], the “area under the curve (AUC), kidneys versus tumors” value is “more than two-fold higher” and the “area under the curve (AUC), tumor versus blood” value was 10 fold. In addition, the tissue uptake at 24 h in series [3] is < 1 %ID/g. In series [4], the “decrease of cell-associated activity” value turned out to be 20%. Also, the log distribution coefficient (logD) in series [5] is -0.52. Moreover, the cell-associated activity in [6] is on record as 14% ± 2%. Besides, the “cell associated activity from initial” value in series [7] came to 60%. The “difference in tumor activity uptake between non-blocked and blocked groups (in vivo specificity to PSMA)” value in the series with PSMA [8] is on record as “demonstrated significant difference”.
Turning to `CC(C)C[C@H](NC(=O)C[C@H](O)[C@H](CC(C)C)NC(=O)[C@H](Cc1c[nH]cn1)NC(=O)CNC(=O)[C@@H](NC(=O)[C@H](C)NC(=O)[C@H](Cc1c[nH]c2ccccc12)NC(=O)[C@H](CCC(N)=O)NC(=O)[C@@H](Cc1ccccc1)NC(=O)CCOCCOCCNC(=O)[C@H](Cc1ccc(O)c(I)c1)n1cc(CCCCCCCC(=O)NC[C@H]2CC[C@H](C(=O)N[C@@H](Cc3ccc4ccccc4c3)C(=O)NCCCC[C@H](NC(=O)N[C@@H](CCC(=O)O)C(=O)O)C(=O)O)CC2)nn1)C(C)C)C(N)=O` [[^125I]I-BO535], the “decrease of cell-associated activity” value in series [4] was determined as 35%. Moreover, in series [5], the logD is 1.07. Besides, the “difference in tumor activity uptake between non-blocked and blocked groups (in vivo specificity to PSMA)” value with PSMA [8] is “failed to demonstrate in vivo specificity”.
Turning to `CC(C)C[C@H](NC(=O)C[C@H](O)[C@H](CC(C)C)NC(=O)[C@H](Cc1c[nH]cn1)NC(=O)CNC(=O)[C@@H](NC(=O)[C@H](C)NC(=O)[C@H](Cc1c[nH]c2ccccc12)NC(=O)[C@H](CCC(N)=O)NC(=O)[C@@H](Cc1ccccc1)NC(=O)CCOCCOCCNC(=O)[C@H](Cc1ccc(O)cc1)n1cc(COCCOCCC(=O)NC[C@H]2CC[C@H](C(=O)N[C@@H](Cc3ccc4ccccc4c3)C(=O)NCCCC[C@H](NC(=O)N[C@@H](CCC(=O)O)C(=O)O)C(=O)O)CC2)nn1)C(C)C)C(N)=O` [BO530], the IC50 on PSMA [1] is 0.098 ± 0.013 µM.
`O=C([O-])CN1CCN(CC(=O)[O-])CCN(CC(=O)NCC2CCC(C(=O)N[C@@H](Cc3ccc4ccccc4c3)C(=O)NCCCC[C@H](NC(=O)N[C@@H](CCC(=O)O)C(=O)O)C(=O)O)CC2)CCN(CC(=O)[O-])CC1.[177Lu+3]` (some centres unmarked) [^177Lu-PSMA-617]: the “initial uptake in kidneys versus tumors” value on PSMA [9] was “at least 10 fold”.
